From ChEMBL document CHEMBL2346531, “Investigation of σ receptors agonist/antagonist activity through N-(6-methoxytetralin-1-yl)- and N-(6-methoxynaphthalen-1-yl)alkyl derivatives of polymethylpiperidines” (Bioorg Med Chem, 2013)
Active and inactive are the calls of the source. No cut-off for these calls is given here.

How the values were obtained:
[1] = tested on: MCF7; test: Antagonist activity at sigma 2 receptor in human MCF7 cells assessed as effect on bradykinin-triggered Ca2+ response at 1 uM pretreated for 10 mins measured every 5 secs by fluorescence analysis; assay type: cell-based
[2] = target: Sigma non-opioid intracellular receptor 1 (Homo sapiens) (UniProt Q99720); test: Activity at human sigma 1 receptor transfected in human MCF7 cells assessed as Ca2+ mobilization by fluorescence analysis; assay type: cell-based
[3] = Selectivity ratio of Ki for sigma 2 receptor in Wistar Hannover rat liver membrane to Ki for sigma 1 receptor in Dunkin guinea pig brain membrane without cerebellum; assay type: cell membranes
[4] = tested on: MCF7; test: Antiproliferative activity against human MCF7 cells transfected with human sigma1 receptor after 48 hrs by MTT assay; assay type: functional, cell-based; parameters: Activity: concentration or dose not given beside the values; conditions: for EC50: Homo sapiens, MCF7, 48 h
[5] = Displacement of [3H]DTG from sigma 2 receptor in Wistar Hannover rat liver membrane by competition binding assay; assay type: cell membranes
[6] = target: Sigma non-opioid intracellular receptor 1 (Homo sapiens) (UniProt Q99720); test: Agonist activity at human sigma 1 receptor transfected in human MCF7 cells assessed as increase in bradykinin-triggered Ca2+ response at 1 uM pretreated for 10 mins measured every 5 secs by fluorescence analysis; assay type: cell-based
[7] = target: Sigma non-opioid intracellular receptor 1 (Cavia porcellus, UniProt Q60492); test: Displacement of [3H]pentazocine from sigma 1 receptor in Dunkin guinea pig brain membrane without cerebellum by competition binding assay; assay type: cell membranes
[8] = tested on: MCF7; test: Antiproliferative activity against human MCF7 cells after 48 hrs by MTT assay; assay type: functional, cell-based; conditions: for EC50: Homo sapiens, MCF7, 48 h
[9] = tested on: MCF7; test: Activity at sigma 2 receptor in human MCF7 cells assessed as Ca2+ mobilization by fluorescence analysis; assay type: cell-based
[10] = tested on: MCF7; test: Antagonist activity at sigma 2 receptor in human MCF7 cells assessed as effect on bradykinin-triggered Ca2+ response at 10 uM pretreated for 10 mins measured every 5 secs by fluorescence analysis; assay type: cell-based
[11] = target: Sigma non-opioid intracellular receptor 1 (Homo sapiens) (UniProt Q99720); test: Antagonist activity at human sigma 1 receptor transfected in human MCF7 cells assessed as decrease in bradykinin-triggered Ca2+ response at 1 uM pretreated for 10 mins measured every 5 secs by fluorescence analysis in presence of 1 uM sigma 1 receptor agonist, (+)-pentazocine; assay type: cell-based
[12] = target: Sigma non-opioid intracellular receptor 1 (Homo sapiens) (UniProt Q99720); test: Antagonist activity at human sigma 1 receptor transfected in human MCF7 cells assessed as decrease in bradykinin-triggered Ca2+ response at 1 uM pretreated for 10 mins measured every 5 secs by fluorescence analysis; assay type: cell-based
[13] = tested on: MCF7; test: Agonist activity at sigma 2 receptor in human MCF7 cells assessed as decrease in bradykinin-induced Ca2+ response at 1 uM pretreated for 10 mins measured every 5 secs by fluorescence analysis; assay type: cell-based
[14] = tested on: MCF7; test: Agonist activity at sigma 2 receptor in human MCF7 cells assessed as decrease in bradykinin-induced Ca2+ response at 1 uM pretreated for 10 mins measured every 5 secs by fluorescence analysis in presence of 10 uM sigma 2 receptor antagonist, AC927; assay type: cell-based
[15] = target: Sigma non-opioid intracellular receptor 1 (Homo sapiens) (UniProt Q99720); test: Agonist activity at human sigma 1 receptor transfected in human MCF7 cells assessed as increase in bradykinin-triggered Ca2+ response at 1 uM pretreated for 10 mins measured every 5 secs by fluorescence analysis in presence of 1 uM sigma 1 receptor antagonist, BD1063; assay type: cell-based
[16] = tested on: MCF7; test: Activity at sigma 2 receptor in human MCF7 cells assessed as bardykinin-triggered Ca2+ mobilization at 1 uM pretreated for 10 mins measured every 5 secs by fluorescence analysis; assay type: cell-based

Chain of Sigma non-opioid intracellular receptor 1 (Q60492 whole entry): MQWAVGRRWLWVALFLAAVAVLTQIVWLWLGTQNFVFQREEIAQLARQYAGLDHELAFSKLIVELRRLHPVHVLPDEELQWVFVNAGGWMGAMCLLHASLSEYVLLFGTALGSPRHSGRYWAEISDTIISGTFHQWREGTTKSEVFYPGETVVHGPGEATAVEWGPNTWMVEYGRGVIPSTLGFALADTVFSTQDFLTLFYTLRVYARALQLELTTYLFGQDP
Chain of Sigma non-opioid intracellular receptor 1 (Homo sapiens) (Q99720 whole entry): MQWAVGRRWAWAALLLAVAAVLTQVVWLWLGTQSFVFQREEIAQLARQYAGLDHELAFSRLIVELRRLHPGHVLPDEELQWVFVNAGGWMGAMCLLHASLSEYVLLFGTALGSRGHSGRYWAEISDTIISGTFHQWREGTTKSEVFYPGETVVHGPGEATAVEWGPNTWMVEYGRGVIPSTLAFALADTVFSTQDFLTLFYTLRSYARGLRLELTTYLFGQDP

SMILES | Ratio Ki [3] | EC50 [4] [µM] | Ki [5] [µM] | Ki [7] [µM] | EC50 [8] [µM] | other results
COc1ccc2c(c1)CCCC2CCCN1[C@H](C)CCC[C@@H]1C (stereo partly drawn) | 0.8 | > 100 | 0.0909 | 0.11 | > 100 | Activity [1]: Active; Activity [2]: inactive; Activity [6]: Active; Activity [9]: inactive
COc1ccc2c(c1)CCCC2CCCN1CCCCC1(C)C (stereo not drawn) | 0.6 | > 100 | 0.115 |  | > 100 | 
Cc1ccccc1NC(=N)Nc1ccccc1C [DITOLYLGUANIDINE] |  |  | 0.0302 |  |  | 
COc1ccc2c(CCCN3C(C)(C)CCCC3(C)C)cccc2c1 | 2.1 | > 100 | 0.495 | 0.236 | > 100 | 
COc1ccc2c(c1)CCCC2CCCN1C(C)(C)CCCC1(C)C (stereo not drawn) | 1.7 | > 100 | 0.641 | 0.373 | > 100 | 
COc1ccc2c(CCCN3CCCCC3(C)C)cccc2c1 | 0.09 | > 100 | 0.094 |  | > 100 | 
COc1cccc2c1CCCC2CCCN1CCN(C2CCCCC2)CC1 (stereo not drawn) |  | 31.2 |  |  | 27.4 | 
COc1ccc2c(CCCCN3CCCCC3(C)C)cccc2c1 | 1.3 | 100 | 0.0286 |  | 100 | Activity [4]: 18%; Activity [8]: 19%
CN1CCN(CCc2ccc(Cl)c(Cl)c2)CC1 |  | 70 |  |  | > 100 | 
COc1ccc2c(c1)CCCC2CCCCN1C(C)(C)CCCC1(C)C (stereo not drawn) | 1.9 | > 100 | 0.0698 | 0.0359 | > 100 | 
c1ccc(CCN2CCCCC2)cc1 |  | > 100 |  |  | > 100 | Activity [10]: Active
COc1ccc2c(c1)CCCC2CCCCN1[C@H](C)CCC[C@@H]1C (stereo partly drawn) | 1.3 | 100 | 0.0111 | 0.00867 | > 100 | Activity [1]: Active; inhibition [11]: inactive; inhibition [12]: Active; Activity [2]: inactive; Activity [4]: 14%; Activity [9]: inactive
COc1ccc2c(CCCCN3[C@H](C)CCC[C@@H]3C)cccc2c1.Cl | 0.7 | 100 | 0.0138 | 0.0185 | 100 | inhibition [13]: Active; Activity [2]: inactive; Activity [4]: 12%; inhibition [14]: inactive; Activity [6]: Active; Activity [8]: 14%; Activity [9]: inactive
COc1ccc2c(CCCN3[C@H](C)CCC[C@@H]3C)cccc2c1 | 6.1 | > 100 | 0.0454 | 0.00743 | > 100 | Activity [1]: Active; Activity [2]: inactive; Activity [6]: Active; Activity [9]: inactive; Activity [15]: inactive
COc1ccc2c(c1)CCCC2CCCCN1CCCCC1(C)C (stereo not drawn) | 9 | 100 | 0.0295 |  | 100 | Activity [4]: 14%; Activity [8]: 20%
COc1ccc2c(CCCCN3C(C)(C)CCCC3(C)C)cccc2c1 | 1 | > 100 | 0.0907 | 0.0886 | > 100 | 
CC(C)=CCN1CC[C@]2(C)c3cc(O)ccc3C[C@H]1[C@H]2C [(+)-PENTAZOCINE] |  | > 100 |  |  | > 100 | Activity [16]: inactive
